Experimental data reported in ChEMBL document CHEMBL1201862, “PubChem BioAssay data set” (2004).
Several values for one entry are separate records, joined by “and”; a condition that tells them apart may be missing. Identical values can stand only once. Activity calls are given as the source filed them.

Columns and labels:
[1] = target: T1, Aspartyl aminopeptidase (Plasmodium falciparum 3D7, UniProt Q8I2J3)
T1 sequence (Q8I2J3 whole entry): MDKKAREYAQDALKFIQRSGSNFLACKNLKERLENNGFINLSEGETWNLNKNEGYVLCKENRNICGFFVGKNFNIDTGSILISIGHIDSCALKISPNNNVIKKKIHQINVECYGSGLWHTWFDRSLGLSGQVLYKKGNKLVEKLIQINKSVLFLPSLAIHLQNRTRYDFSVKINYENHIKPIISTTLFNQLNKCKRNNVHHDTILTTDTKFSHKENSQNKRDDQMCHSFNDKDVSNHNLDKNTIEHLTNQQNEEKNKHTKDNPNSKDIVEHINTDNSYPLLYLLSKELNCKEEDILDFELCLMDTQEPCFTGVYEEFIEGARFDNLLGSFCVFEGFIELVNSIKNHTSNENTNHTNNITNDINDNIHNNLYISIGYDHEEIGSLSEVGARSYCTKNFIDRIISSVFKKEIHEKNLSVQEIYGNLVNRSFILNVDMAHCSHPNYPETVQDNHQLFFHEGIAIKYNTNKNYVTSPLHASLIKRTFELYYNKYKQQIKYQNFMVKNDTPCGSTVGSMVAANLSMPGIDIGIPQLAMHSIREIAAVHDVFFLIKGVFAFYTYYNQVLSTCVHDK

[2] = target: Procathepsin L (Homo sapiens, UniProt P07711)
Chain of Procathepsin L (P07711 whole entry): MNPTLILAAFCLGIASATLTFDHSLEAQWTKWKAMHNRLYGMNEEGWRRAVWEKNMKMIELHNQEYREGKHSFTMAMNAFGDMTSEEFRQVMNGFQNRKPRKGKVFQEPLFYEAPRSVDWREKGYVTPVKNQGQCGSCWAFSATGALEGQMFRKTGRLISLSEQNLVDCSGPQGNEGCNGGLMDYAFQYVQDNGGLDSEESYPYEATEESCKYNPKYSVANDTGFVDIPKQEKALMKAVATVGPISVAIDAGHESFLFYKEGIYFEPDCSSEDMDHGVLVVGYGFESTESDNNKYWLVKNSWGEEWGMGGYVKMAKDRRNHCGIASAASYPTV

[3] = A cytotoxicity screen of small molecule inhibitors of the PhoP region in Salmonella typhi identified in the primary screen. [Related pubchem assays: 1850, 1864, 1985 ]; format: functional
[4] = target: T2, Estrogen receptor (Homo sapiens, UniProt P03372); experiment: potentiators of ERα–SRC-1 coactivator binding, dose response, biochemical, TR-FRET, ERα LBD (AID 737)
T2 sequence (P03372 whole entry): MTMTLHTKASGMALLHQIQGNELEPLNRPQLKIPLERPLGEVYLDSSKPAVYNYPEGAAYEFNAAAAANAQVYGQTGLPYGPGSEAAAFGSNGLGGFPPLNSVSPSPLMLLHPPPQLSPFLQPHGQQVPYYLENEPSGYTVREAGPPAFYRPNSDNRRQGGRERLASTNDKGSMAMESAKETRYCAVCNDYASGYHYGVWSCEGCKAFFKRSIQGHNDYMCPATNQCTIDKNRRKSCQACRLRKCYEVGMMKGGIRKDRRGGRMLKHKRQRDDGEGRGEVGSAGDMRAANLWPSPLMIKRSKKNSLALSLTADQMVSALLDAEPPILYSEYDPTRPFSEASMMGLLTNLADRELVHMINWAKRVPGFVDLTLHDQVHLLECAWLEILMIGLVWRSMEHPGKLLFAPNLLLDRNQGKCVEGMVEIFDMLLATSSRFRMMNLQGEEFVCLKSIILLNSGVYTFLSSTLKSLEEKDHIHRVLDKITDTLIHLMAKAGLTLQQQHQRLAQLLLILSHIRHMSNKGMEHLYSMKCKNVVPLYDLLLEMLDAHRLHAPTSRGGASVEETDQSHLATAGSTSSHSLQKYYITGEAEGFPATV

[5] = target: Peroxisome proliferator-activated receptor gamma/Nuclear receptor coactivator 2 (Homo sapiens, UniProt P37231); format: functional;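 note: agonist potency for raising coactivator recruitment to the receptor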
[6] = target: Peroxisome proliferator-activated receptor gamma/Nuclear receptor coactivator 3 (Homo sapiens, UniProt P37231); format: functional;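 note: agonist potency for raising coactivator recruitment to the receptor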
Chain of Peroxisome proliferator-activated receptor gamma/Nuclear receptor coactivator 3 (P37231 whole entry): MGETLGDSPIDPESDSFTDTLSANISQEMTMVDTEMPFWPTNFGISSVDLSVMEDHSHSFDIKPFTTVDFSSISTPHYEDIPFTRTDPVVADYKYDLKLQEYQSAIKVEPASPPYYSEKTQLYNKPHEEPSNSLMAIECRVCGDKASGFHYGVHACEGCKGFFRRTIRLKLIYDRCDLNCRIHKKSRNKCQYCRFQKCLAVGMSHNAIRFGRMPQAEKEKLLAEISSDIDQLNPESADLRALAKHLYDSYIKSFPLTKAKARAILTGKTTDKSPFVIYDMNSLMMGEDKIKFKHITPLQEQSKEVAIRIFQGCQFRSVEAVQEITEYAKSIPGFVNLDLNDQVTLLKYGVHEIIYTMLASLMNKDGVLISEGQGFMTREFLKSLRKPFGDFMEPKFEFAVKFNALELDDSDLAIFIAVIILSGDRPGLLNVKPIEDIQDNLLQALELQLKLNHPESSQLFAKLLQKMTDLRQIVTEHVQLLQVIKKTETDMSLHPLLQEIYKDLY
Chain of Peroxisome proliferator-activated receptor gamma/Nuclear receptor coactivator 3 (Q9Y6Q9 whole entry, further chain): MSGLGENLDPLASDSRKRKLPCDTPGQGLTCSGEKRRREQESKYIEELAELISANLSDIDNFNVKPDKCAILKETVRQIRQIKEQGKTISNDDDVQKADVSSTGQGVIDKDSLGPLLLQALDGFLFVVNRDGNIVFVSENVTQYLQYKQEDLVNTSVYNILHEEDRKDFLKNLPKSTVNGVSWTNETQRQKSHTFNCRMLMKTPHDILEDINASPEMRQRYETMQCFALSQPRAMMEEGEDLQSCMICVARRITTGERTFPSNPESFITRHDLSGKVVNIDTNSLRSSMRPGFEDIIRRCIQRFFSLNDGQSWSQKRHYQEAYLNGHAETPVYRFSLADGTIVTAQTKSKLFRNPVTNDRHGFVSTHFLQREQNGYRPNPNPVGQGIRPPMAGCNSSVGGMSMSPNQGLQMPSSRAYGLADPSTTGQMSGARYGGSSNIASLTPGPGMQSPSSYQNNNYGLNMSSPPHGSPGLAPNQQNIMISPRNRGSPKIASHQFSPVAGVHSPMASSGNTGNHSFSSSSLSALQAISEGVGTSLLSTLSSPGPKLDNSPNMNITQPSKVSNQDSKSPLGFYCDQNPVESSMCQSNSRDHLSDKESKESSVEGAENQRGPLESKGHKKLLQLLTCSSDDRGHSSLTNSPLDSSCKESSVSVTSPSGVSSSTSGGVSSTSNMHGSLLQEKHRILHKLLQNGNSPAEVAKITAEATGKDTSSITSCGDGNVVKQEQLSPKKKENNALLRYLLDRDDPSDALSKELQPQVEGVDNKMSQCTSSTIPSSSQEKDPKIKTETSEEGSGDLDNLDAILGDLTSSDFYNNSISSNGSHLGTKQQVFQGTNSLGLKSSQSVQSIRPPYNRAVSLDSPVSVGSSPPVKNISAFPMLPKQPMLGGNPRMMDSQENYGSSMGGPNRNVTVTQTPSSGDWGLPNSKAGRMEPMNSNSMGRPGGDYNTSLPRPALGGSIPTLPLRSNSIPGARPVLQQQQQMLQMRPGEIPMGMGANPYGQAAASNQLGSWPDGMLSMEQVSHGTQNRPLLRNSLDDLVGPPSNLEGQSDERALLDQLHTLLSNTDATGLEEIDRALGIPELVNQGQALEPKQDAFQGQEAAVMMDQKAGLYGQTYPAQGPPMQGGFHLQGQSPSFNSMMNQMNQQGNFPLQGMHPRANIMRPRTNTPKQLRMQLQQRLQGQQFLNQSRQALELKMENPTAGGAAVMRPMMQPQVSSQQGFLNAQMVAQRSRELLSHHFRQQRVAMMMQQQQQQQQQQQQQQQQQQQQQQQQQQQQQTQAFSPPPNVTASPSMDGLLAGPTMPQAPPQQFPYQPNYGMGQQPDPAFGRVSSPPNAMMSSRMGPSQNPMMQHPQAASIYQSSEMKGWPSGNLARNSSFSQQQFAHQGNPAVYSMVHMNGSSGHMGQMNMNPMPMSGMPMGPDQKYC

[7] = target: Peroxisome proliferator-activated receptor gamma/Nuclear receptor coactivator 1 (Homo sapiens, UniProt P37231); format: functional;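 note: agonist potency as compounds enhance coactivator SRC-1 recruitment to PPARgamma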
Chain of Peroxisome proliferator-activated receptor gamma/Nuclear receptor coactivator 1 (P37231 whole entry): as the sequence (P37231 whole entry) above
Chain of Peroxisome proliferator-activated receptor gamma/Nuclear receptor coactivator 1 (Q15788 whole entry, further chain): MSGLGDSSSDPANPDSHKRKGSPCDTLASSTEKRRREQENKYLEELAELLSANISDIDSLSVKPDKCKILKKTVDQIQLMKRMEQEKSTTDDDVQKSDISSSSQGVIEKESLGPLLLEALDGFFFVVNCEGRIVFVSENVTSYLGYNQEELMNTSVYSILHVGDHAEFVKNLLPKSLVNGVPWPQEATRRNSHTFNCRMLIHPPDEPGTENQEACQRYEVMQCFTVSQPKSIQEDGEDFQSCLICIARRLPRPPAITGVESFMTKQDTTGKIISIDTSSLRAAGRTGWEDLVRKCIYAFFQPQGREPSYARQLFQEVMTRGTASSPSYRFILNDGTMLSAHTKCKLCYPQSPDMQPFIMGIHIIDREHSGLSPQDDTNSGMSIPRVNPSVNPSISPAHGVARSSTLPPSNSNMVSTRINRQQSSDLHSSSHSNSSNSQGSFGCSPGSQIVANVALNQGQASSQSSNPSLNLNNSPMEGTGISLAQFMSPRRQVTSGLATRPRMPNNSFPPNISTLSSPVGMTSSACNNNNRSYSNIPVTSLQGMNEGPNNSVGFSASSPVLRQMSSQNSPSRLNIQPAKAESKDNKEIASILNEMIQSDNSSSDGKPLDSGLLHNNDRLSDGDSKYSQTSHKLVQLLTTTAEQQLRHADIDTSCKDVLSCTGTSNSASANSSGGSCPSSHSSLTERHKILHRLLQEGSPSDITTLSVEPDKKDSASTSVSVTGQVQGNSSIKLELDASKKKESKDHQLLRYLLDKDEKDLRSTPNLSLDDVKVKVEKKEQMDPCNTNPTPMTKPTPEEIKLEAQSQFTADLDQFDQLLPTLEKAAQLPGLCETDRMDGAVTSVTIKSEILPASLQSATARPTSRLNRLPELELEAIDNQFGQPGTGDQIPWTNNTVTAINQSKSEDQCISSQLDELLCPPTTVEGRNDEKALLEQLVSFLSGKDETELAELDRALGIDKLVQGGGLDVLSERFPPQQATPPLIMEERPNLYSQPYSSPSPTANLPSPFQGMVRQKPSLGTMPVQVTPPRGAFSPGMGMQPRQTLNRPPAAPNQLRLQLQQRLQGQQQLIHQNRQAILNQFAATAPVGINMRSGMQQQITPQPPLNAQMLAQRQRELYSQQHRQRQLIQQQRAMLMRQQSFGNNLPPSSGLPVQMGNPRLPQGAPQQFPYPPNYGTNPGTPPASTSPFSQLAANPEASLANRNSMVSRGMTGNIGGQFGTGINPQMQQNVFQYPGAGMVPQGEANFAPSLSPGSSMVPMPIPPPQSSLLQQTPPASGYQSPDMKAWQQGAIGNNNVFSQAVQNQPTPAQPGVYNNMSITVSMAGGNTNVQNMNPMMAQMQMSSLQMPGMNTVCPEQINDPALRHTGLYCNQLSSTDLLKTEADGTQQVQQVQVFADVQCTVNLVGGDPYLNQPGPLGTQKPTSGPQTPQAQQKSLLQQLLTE

[8] = target: Mothers against decapentaplegic homolog 3 (Homo sapiens, UniProt P84022); experiment: Smad3 binding inhibitors, lysate ELISA, dose response, cell lysate, secondary confirmation, chemiluminescent ELISA, HEK293 lysate (AID 1058); format: functional
Chain of Mothers against decapentaplegic homolog 3 (P84022 whole entry): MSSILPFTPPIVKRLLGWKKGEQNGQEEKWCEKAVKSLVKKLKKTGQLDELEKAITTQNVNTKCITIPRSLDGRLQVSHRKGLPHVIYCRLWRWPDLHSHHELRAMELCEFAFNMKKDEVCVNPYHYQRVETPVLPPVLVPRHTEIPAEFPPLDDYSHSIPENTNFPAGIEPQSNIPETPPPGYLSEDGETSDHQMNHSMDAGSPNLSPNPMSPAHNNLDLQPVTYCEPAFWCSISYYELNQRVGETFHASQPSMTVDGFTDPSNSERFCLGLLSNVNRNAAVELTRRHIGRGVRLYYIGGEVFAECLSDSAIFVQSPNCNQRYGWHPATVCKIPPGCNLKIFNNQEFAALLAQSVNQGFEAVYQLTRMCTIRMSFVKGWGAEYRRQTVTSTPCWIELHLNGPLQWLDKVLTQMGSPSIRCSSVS

[9] = target: Luciferin 4-monooxygenase (Photinus pyralis, UniProt P08659); experiment: firefly luciferase enzyme inhibitors, dose response, biochemical, luminescence (AID 1891)
[10] = Luminescence Cell-Based Dose Confirmation HTS to Identify Inhibitors of Platelet Dense Granule Release. [Related pubchem assays: 1663 (Primary HTS), 1678 (Summary of Project)]; format: functional
[11] = A Cell Based Secondary Assay To Explore Cytotoxicity of Compounds that Sensitize Mycobacterium Tuberculosis to Beta-Lactam Antibiotics.; format: functional
[12] = target: T3, Induced myeloid leukemia cell differentiation protein Mcl-1 (Homo sapiens, UniProt Q07820); format: functional
T3 sequence (Q07820 whole entry): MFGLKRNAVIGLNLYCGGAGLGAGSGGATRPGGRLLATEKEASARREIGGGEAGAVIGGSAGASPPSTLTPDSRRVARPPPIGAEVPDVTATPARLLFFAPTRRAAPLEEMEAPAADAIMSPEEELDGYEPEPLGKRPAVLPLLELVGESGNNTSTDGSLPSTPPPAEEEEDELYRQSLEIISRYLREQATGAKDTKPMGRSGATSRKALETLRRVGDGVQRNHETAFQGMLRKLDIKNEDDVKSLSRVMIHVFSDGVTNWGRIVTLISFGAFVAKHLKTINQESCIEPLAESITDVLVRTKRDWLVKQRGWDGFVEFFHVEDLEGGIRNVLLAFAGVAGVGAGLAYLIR

[13] = target: T3, Induced myeloid leukemia cell differentiation protein Mcl-1; experiment: MCL1-BIM BH3 interaction inhibitors, dose response, biochemical, fluorescence polarization, BIM-BH3 peptide, 1536-well (AID 2217)
[14] = target: T4, Caspase-6 (Homo sapiens, UniProt P55212); experiment: human caspase-6 inhibitors, dose response, biochemical, VEID-R110 fluorescence, cherry-pick (AID 720632)
T4 sequence (P55212 whole entry): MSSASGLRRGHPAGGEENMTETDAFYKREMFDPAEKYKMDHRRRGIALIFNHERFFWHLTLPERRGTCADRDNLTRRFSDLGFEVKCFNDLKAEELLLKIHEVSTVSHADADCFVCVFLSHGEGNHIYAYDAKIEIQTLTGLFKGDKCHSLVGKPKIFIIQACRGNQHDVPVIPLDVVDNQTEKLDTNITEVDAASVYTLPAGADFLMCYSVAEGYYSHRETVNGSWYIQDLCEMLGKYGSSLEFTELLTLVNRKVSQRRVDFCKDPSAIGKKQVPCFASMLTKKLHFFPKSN

[15] = target: Bcl-2-like protein 1 (Homo sapiens, UniProt Q07817); experiment: BCL-XL inhibitors, dose response, selectivity assay for MCL1 inhibitor project, biochemical, fluorescence polarization, 1536-well (AID 2218)
[16] = target: DNA (cytosine-5)-methyltransferase 1 (Homo sapiens, UniProt P26358); experiment: DNMT1 methyltransferase inhibitors, confirmation, biochemical, fluorescent molecular beacon (AID 602386); format: functional
[17] = target: T5, Aminopeptidase N (Plasmodium falciparum FcB1/Columbia, UniProt O96935); experiment: P. falciparum M1AAP inhibitors, biochemical, fluorogenic H-Leu-NHMec substrate, 1536-well (AID 1445); design: species or system Plasmodium falciparum 3D7, 3D7
T5 sequence (O96935 whole entry): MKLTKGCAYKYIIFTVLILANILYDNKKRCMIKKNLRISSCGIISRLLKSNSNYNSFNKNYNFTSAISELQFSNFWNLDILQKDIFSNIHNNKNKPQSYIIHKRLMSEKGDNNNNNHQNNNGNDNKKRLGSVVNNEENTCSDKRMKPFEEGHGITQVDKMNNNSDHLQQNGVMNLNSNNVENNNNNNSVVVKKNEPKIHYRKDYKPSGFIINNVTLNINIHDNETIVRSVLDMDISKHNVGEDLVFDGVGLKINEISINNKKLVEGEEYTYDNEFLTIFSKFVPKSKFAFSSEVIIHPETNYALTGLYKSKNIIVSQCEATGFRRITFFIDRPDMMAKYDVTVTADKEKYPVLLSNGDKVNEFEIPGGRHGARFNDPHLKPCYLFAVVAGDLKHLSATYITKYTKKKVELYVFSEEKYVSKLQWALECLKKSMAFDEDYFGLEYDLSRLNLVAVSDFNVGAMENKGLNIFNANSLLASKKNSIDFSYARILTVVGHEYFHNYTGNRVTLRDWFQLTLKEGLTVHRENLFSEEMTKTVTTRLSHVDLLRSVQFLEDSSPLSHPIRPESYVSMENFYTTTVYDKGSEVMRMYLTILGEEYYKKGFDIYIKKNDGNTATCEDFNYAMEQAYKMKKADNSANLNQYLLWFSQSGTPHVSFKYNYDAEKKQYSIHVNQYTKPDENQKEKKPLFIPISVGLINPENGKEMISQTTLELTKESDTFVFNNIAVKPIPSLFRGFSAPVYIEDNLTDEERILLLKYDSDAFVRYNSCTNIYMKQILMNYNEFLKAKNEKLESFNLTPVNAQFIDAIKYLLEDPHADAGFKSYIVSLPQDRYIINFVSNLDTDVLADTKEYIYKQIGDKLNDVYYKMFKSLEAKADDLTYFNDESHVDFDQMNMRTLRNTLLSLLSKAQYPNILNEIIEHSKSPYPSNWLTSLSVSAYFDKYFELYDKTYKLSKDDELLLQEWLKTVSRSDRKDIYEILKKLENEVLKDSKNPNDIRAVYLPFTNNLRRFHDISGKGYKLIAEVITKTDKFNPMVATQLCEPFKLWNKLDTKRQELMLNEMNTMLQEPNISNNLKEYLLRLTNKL

[18] = target: Bifunctional protein GlmU (Mycobacterium tuberculosis, UniProt P9WMN3); experiment: Inhibitors of Mycobacterial Glucosamine-1-phosphate acetyl transferase (GlmU). Secondary screen.; design: species or system Mycobacterium tuberculosis H37Rv
[19] = target: T6, Histone-lysine N-methyltransferase NSD2 (Homo sapiens, UniProt O96028); format: biochemical
T6 sequence (O96028 whole entry): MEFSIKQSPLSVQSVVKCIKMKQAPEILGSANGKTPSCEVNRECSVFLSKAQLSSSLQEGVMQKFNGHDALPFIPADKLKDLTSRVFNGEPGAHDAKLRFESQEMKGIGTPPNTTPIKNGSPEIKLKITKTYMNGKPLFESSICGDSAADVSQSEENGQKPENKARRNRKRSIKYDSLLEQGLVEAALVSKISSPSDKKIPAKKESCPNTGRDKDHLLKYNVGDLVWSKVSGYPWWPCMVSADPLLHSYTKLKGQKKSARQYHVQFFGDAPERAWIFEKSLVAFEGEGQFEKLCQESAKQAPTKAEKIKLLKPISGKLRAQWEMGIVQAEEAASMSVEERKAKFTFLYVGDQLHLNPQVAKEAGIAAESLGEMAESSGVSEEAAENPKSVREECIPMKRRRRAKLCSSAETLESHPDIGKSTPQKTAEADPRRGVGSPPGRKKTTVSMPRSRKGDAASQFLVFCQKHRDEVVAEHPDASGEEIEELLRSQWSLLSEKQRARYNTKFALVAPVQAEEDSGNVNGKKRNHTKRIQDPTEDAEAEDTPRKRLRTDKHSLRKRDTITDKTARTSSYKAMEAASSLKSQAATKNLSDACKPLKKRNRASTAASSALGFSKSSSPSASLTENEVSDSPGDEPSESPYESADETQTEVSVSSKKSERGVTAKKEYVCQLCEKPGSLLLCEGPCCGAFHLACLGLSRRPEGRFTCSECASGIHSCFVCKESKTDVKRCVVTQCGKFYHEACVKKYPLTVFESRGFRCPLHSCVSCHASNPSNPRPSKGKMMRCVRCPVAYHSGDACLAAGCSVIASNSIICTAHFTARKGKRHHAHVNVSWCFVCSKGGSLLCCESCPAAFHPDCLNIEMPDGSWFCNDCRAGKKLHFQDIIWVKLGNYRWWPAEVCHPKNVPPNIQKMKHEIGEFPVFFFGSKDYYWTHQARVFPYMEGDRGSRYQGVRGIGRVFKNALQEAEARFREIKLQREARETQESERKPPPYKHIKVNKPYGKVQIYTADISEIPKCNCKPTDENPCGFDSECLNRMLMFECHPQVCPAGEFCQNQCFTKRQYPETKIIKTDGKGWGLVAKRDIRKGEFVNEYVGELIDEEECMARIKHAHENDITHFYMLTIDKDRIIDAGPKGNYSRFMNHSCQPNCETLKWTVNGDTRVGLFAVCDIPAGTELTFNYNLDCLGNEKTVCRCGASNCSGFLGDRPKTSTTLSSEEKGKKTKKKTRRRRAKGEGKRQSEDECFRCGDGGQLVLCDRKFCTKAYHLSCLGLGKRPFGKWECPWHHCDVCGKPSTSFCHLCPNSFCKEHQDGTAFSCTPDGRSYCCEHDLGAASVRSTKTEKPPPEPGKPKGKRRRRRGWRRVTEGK

**Q.** What does the source list for `Cc1c(C(=O)Nn2cnnc2)oc2ccccc12`?
**A.** IC50 [1]: 0.664 µM (active); IC50 [2]: > 59.6 µM (not active)

**Q.** Which EC50 [3] does the source give for `COC(=O)c1c(-c2cccc(C)c2)csc1N` here?
**A.** > 50 µM (active)

**Q.** For `CCOC(=O)c1c(C)[nH]c(C)c1C(=O)CSc1nnc(-c2cc(OC)c(OC)c(OC)c2)o1`, which EC50 [4] is on record?
**A.** 12.5 µM (active)

**Q.** Which EC50 [3] does the source give for `O=C(c1cc2c(s1)-c1ccccc1S(=O)(=O)C2)N1CCN(Cc2ccccc2)CC1` here?
**A.** > 50 µM (active)

**Q.** Which results are given for `Cc1cc(C)c(C#N)c(SCc2cc3c(cc2Cl)OCO3)n1`?
**A.** EC50 [5]: > 79.4 µM (not active); EC50 [6]: > 79.4 µM (not active); EC50 [7]: > 79.4 µM (not active)

**Q.** For `O=C(Nc1ccc([N+](=O)[O-])cc1)Nn1cnnc1`, which IC50 [1] is on record?
**A.** 1.03 µM (active)

**Q.** And the IC50 [2]?
**A.** > 59.6 µM (not active)

**Q.** For `COc1ccccc1C(c1cc2c(cc1O)OCO2)N1CCOCC1` (stereo not drawn), which IC50 [8] is on record?
**A.** 35.3 µM (not active) and < 2.5 µM (not active)

**Q.** With `NOC(=O)C1=CC(=C(c2ccc(O)c(C(=O)ON)c2)c2ccc(O)c(C(=O)ON)c2)C=CC1=O` as the compound, how does the IC50 [8] read?
**A.** 22.5 µM (not active)

**Q.** Which results are given for `O=C(COC(=O)c1sc2ccccc2c1Cl)NC1CCCCC1`?
**A.** EC50 [9]: > 112 µM (not active); EC50 [10]: > 112 µM (not active); EC50 [5]: > 79.4 µM (not active); EC50 [6]: > 79.4 µM (not active); EC50 [7]: > 79.4 µM (not active)

**Q.** With `COc1cc(C(=O)NC2CCCCC2)ccc1OCc1ccc(Cl)cc1Cl` as the compound, how does the CC50 [11] read?
**A.** 24.7 µM (active)

**Q.** With `COc1cccc(-c2cc(C(=O)Nc3cc(C)nn3-c3ccccc3)no2)c1` as the compound, how does the EC50 [4] read?
**A.** 12 µM (active)

**Q.** With `CCOC(=O)c1nn(-c2ccc(F)cc2)c2nc(Nc3ccccc3)cc(=O)n12` as the compound, how does the CC50 [11] read?
**A.** > 40 µM (active)

**Q.** What does the source list for `O=C(O)c1ccc(-n2cccc2/C=N\NC(=O)c2cc3cc(Br)ccc3o2)cc1`?
**A.** IC50 [12]: 1.72 µM (active); IC50 [13]: 12.1 µM (not active); AC50 [14]: 0.801 µM (active); IC50 [15]: > 109 µM (not active); IC50 [16]: 4.36 µM (active); IC50 [17]: 37.1 µM (active); IC50 [18]: 66 µM (active); AC50 [19]: 7.63 µM (active)
